Eleven compounds from US20240109865A1, “INDAZOLE COMPOUNDS AS KINASE INHIBITORS” (TYRA BIOSCIENCES, INC., priority 2020, published 2024) can be followed below.

Each structure is given as a SMILES string.

The test system of assay [1] is RT112/84 cells (FGFR3-fusion). As to the kind of experiment: RT112/84 cancer cell line cell viability assay (CellTiter-Glo 2.0). The settings on record: Homo sapiens, 72 hours, Cell Titer Glo 2.0. The format is cell-based. The text has this:
(§1) Experimental Purpose: To detect the change of intracellular ATP by Cell Titer-Glo® and to evaluate the inhibitory effect of the compounds on cancer cell lines by determining the in vitro IC50 value of the compounds.
(§2) Cell Titer-Glo® 2.0 Luminescent cell viability assay reagent was purchased from Promega (Madison, WI). RT112/84 and KG-1 cell lines were purchased from American Type Culture Collection (Manassas, VA). UM-UC-14 cell line was purchased from Sigma (St. Louis, MO). RT112/84, UM-UC-14, and KG-1 cells were cultured in RPMI1640 media supplemented with 10% fetal bovine serum. Cultures were maintained at 37° C. in a humidified atmosphere of 5% C02 and 95% air.
(§3) Cell Viability Assay Procedure: Cells were plated in 96-well clear bottom/white plates (Corning #3903) at 10,000 cells/well in 100 μl of media, incubated overnight. The next day, test compound DMSO stock solutions were made at 10 mM and 2 μM final concentration. Compounds were then added to cells in a 9-dose, 10-fold dilution series starting at 30 μM with an HP 300e Digital Dispenser (each dose was applied in triplicate). DMSO was backfilled to each well up to 301 nL total volume of test compound+DMSO, and a total of 301 nL DMSO was added to a control/no test compound well in triplicate. The cells in cell culture plates were incubated with the compounds at 37° C. and 5% C02 for 72 hours. Then 50 μl of Cell Titer Glo 2.0 reagent was added to each well of the cell culture plates. The contents were covered from light and mixed on an orbital shaker at room temperature for 10 min. Luminescence was recorded by a Synergy H1 Microplate Reader (Biotek, Winooski, VT). Cells were assessed as a percentage of DMSO only treated control cells. Curves were plotted and IC50 values were calculated using the GraphPad Prism 8 program based on a sigmoidal dose-response equation (4 parameter).

Assay [2] has as its system KG-1 cells (FGFR1-fusion). The experiment in a line: KG-1 cancer cell line cell viability assay (CellTiter-Glo 2.0). The format is cell-based. The settings on record: Homo sapiens, 72 hours, Cell Titer Glo 2.0.
Source text: as §1, §2, §3

The target in assay [3] is FGFR3-BAIAP2L1 Ba/F3 cells (Homo sapiens, UniProt P22607). The experiment in a line: Ba/F3 cell viability assay (CellTiter-Glo 2.0), FGFR3-BAIAP2L1 Ba/F3. The class given is cell-based. The settings on record: for Ba/F3 FGFR1/FGFR3 Selectivity: FGFR3 > FGFR1 selectivity ratio in Ba/F3 FGFR fusion cell based assays; for IC50: read-out: Ba/F3 Cells FGFR3 (IC50 nM), FGFR3-BAIAP2L1 Ba/F3 cells, 48 hours, Cell Titer Glo 2.0. The procedure, abridged:
(§4)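 Viability read as ATP luminescence (CellTiter-Glo 2.0) after 48 h compound exposure, normalized to DMSO-treated cells and fitted with a 4-parameter curve for IC50. Cells: Ba/F3 dependent on FGFR1-BCR or FGFR3-BAIAP2L1 fusion kinase; top dose 30 μM, 10-fold steps, 9 doses in triplicate.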

The target of the next assay is FGFR1-BCR Ba/F3 cells (Homo sapiens, UniProt P11362). The experiment in a line: Ba/F3 cell viability assay (CellTiter-Glo 2.0), FGFR1-BCR Ba/F3. The format is cell-based. The conditions noted are these: read-out: Ba/F3 Cells FGFR1 (IC50 nM), 48 hours, Cell Titer Glo 2.0. The procedure, abridged: as §4
The next assay has as its target FGFR3 (Homo sapiens (Human), UniProt P22607). The experiment in a line: Kinase assay, binding constants (Kd), kinase-tagged T7 phage, qPCR. The procedure, abridged: (§5)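 Using T7 phage lysates from BL21-derived E. coli, compounds at 0.9% final DMSO competed for kinase binding to ligand-bearing magnetic beads. After elution, qPCR measured remaining kinase, and Kds were fitted by non-linear least squares with the Hill slope fixed at −1.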

A further assay concerns the target FGFR1 (Homo sapiens (Human), UniProt P11362). The assay is described as above. The procedure, abridged:
as §5

The target in the next assay is FGFR2 (Homo sapiens (Human), UniProt P21802). The assay is described as above. The method, boiled down: as §5
A further assay deals with FGFR4 (Homo sapiens (Human), UniProt P22455). Described as above. The procedure, abridged:
as §5

The next assay addresses FGFR3 (V555M) (Homo sapiens (Human), UniProt P22607, V555M). Described as above. The conditions noted are these: V555M mutant. The method, boiled down:
as §5

Sequence of FGFR2 (P21802 22-821): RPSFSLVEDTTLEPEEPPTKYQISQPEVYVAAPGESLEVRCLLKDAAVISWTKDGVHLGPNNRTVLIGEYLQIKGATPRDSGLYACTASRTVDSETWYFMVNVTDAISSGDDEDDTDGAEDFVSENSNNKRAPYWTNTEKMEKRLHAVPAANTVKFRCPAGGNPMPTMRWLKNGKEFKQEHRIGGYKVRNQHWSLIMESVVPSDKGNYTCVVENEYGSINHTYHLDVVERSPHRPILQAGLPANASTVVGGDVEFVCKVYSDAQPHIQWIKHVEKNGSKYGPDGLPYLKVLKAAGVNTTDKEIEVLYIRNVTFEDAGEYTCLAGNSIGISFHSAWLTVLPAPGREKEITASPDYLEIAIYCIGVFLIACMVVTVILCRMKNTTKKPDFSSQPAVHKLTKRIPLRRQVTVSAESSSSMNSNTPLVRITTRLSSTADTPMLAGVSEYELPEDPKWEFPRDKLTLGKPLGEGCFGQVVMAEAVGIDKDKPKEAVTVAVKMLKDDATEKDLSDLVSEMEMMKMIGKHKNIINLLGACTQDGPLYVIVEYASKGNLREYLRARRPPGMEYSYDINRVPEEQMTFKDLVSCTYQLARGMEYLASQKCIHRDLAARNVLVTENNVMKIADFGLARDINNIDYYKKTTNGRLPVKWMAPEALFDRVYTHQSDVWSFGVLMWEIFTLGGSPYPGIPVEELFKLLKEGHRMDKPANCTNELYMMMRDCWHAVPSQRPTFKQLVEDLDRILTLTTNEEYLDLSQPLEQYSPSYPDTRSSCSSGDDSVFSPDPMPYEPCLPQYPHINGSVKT
Sequence of FGFR3 (P22607 23-806): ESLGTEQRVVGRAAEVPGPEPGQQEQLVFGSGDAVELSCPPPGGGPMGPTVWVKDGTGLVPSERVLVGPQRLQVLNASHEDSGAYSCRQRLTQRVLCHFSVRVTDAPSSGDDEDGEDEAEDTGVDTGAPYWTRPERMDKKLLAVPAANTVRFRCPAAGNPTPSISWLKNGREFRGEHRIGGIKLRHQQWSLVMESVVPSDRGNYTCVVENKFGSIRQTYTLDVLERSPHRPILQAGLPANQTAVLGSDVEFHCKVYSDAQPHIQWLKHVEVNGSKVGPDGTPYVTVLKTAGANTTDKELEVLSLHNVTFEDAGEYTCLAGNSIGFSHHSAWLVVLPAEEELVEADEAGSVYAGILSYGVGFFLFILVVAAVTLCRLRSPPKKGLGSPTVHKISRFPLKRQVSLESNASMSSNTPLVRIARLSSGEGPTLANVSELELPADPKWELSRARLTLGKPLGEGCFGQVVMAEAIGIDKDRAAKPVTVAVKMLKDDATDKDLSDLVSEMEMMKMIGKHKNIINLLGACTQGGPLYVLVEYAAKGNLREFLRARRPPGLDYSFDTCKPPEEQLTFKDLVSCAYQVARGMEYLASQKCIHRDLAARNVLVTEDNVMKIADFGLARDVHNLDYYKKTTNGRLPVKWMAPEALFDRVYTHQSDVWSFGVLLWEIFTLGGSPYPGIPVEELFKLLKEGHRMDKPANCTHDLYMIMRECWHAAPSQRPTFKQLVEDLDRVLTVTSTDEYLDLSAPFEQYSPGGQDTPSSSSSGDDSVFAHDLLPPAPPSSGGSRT
Sequence of FGFR3-BAIAP2L1 Ba/F3 cells (P22607 23-806 limits assumed, change not shown): as the sequence (P22607 23-806) above
Sequence of FGFR4 (P22455 22-802): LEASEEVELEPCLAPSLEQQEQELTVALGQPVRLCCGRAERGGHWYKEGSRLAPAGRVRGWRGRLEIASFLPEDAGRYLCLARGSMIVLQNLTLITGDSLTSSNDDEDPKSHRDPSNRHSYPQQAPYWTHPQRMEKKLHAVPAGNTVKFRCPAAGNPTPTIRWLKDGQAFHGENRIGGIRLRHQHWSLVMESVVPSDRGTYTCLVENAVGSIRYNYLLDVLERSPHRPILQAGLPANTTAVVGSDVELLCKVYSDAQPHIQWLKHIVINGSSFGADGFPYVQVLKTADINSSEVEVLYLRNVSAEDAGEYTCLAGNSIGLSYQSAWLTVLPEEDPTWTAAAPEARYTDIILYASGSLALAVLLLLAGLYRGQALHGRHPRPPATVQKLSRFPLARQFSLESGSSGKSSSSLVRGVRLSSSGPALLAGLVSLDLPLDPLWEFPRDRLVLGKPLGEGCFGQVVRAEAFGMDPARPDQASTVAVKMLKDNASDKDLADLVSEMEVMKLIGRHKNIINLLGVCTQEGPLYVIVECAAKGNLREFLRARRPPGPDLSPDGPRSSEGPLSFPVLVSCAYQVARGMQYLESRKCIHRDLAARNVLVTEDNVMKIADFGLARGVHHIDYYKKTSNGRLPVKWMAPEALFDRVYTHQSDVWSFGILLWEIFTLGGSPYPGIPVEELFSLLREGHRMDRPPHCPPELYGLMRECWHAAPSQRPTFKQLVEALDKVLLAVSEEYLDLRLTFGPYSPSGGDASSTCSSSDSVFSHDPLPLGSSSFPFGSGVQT
Sequence of FGFR1 (P11362 22-822): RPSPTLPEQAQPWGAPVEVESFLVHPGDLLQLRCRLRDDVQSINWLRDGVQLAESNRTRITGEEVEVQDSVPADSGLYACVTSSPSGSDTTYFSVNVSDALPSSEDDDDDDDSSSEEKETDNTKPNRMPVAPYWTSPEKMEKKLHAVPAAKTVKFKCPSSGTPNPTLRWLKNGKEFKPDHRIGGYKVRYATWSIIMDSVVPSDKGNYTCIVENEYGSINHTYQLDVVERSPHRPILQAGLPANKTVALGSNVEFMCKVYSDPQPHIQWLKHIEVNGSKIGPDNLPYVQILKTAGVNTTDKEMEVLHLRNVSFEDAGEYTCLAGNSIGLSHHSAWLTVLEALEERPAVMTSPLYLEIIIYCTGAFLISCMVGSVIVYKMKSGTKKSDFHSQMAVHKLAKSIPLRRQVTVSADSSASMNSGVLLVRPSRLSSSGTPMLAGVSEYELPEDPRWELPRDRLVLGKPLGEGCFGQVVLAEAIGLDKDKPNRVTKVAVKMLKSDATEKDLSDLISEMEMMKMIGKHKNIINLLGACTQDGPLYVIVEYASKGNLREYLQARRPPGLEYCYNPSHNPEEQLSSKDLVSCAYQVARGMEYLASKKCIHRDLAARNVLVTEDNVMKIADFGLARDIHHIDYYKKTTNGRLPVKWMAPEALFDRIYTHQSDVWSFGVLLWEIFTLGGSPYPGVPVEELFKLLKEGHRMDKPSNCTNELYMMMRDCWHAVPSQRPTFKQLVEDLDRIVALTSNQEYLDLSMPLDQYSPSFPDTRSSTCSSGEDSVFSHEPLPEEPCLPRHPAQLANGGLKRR
Sequence of FGFR1-BCR Ba/F3 cells (P11362 22-822 limits assumed, change not shown): as the sequence (P11362 22-822) above
Sequence of FGFR3 (V555M) (P22607 23-806 V555M): as the sequence (P22607 23-806) above, with V533M counted along it

As for `C[C@@H](Oc1ccc2[nH]nc(-c3ccc(N4CCC5(CCC(=O)N5)CC4)nc3)c2c1)c1c(Cl)cncc1Cl` [Example 29, 8-[5-[5-[(1R)-1-(3,5-dichloro-4-pyridyl)ethoxy]-1H-indazol-3-yl]-2-pyridyl]-1,8-diazaspiro[4.5]decan-2-one], the IC50 in assay [1] was 1 to 20 nM; in [2], 20 to 100 nM; in [3] it was 1 to 20 nM; on FGFR1-BCR Ba/F3 cells, 100 to 300 nM. Besides, the “Ba/F3 FGFR1/FGFR3 Selectivity” value in assay [3] amounted to 19. For the same compound, the Kd at FGFR3, at FGFR1, on FGFR2, at FGFR4 and on FGFR3 (V555M) was 1 to 20 nM each time.

As to `C[C@@H](Oc1ccc2[nH]nc(-c3ccc(N4CCNC(=O)CC4)nc3)c2c1)c1c(Cl)cncc1Cl` [Example 30, 1-[5-[5-[(1R)-1-(3,5-dichloro-4-pyridyl)ethoxy]-1H-indazol-3-yl]-2-pyridyl]-1,4-diazepan-5-one], the IC50 in assay [1] was 1 to 20 nM; in assay [2], 20 to 100 nM; in [3] it was 1 to 20 nM; at FGFR1-BCR Ba/F3 cells, 100 to 300 nM. Further, the “Ba/F3 FGFR1/FGFR3 Selectivity” value in [3] stood at 18. Also, the Kd at FGFR3, on FGFR1, on FGFR2, at FGFR4 and at FGFR3 (V555M) was 1 to 20 nM each time.

For the compound `CC(C)N1CC2(CN(c3ccc(-c4n[nH]c5ccc(O[C@H](C)c6c(Cl)cncc6Cl)cc45)cn3)C2)C1` [Example 31, 5-[(1R)-1-(3,5-dichloro-4-pyridyl)ethoxy]-3-[6-(2-isopropyl-2,6-diazaspiro[3.3]heptan-6-yl)-3-pyridyl]-1H-indazole], the IC50 in [1] fell in the range of 1 to 20 nM; in assay [2], 20 to 100 nM. In addition, the Kd at FGFR3, at FGFR1, on FGFR2, at FGFR4 and at FGFR3 (V555M) was 1 to 20 nM in each case.

For `C[C@@H](Oc1ccc2[nH]nc(-c3cnc(N4CCC5(CCC(=O)N5)CC4)c(F)c3)c2c1)c1c(Cl)cncc1Cl` [Example 42, 8-[5-[5-[(1R)-1-(3,5-dichloro-4-pyridyl)ethoxy]-1H-indazol-3-yl]-3-fluoro-2-pyridyl]-1,8-diazaspiro[4.5]decan-2-one], the IC50 in assay [1] was in the range of 1 to 20 nM; in [2], 20 to 100 nM; in assay [3], 1 to 20 nM; on FGFR1-BCR Ba/F3 cells, 100 to 300 nM. Moreover, the “Ba/F3 FGFR1/FGFR3 Selectivity” value in [3] came out at 17. In addition, the Kd on FGFR3 lay within 1 to 20 nM; at FGFR1 it was 1 to 20 nM; at FGFR2, 20 to 100 nM; on FGFR4 it was 1 to 20 nM; at FGFR3 (V555M), 1 to 20 nM.

Regarding `C[C@@H](Oc1ccc2[nH]nc(-c3cnc(N4CCC5(CC4)CC(=O)NC5=O)nc3)c2c1)c1c(Cl)cncc1Cl` [Example 50, 8-[5-[5-[(1R)-1-(3,5-dichloro-4-pyridyl)ethoxy]-1H-indazol-3-yl]pyrimidin-2-yl]-2,8-diazaspiro-[4,5]decane-1,3-dione], the IC50 was 20 to 100 nM in assay [1], 100 to 300 nM in [2], 1 to 20 nM in assay [3] and 100 to 300 nM on FGFR1-BCR Ba/F3 cells. For the same compound, the “Ba/F3 FGFR1/FGFR3 Selectivity” value in [3] is listed as 16. Besides, the Kd was in the range of 1 to 20 nM on FGFR3; 20 to 100 nM at FGFR1; 20 to 100 nM at FGFR2; 1 to 20 nM on FGFR4; 1 to 20 nM at FGFR3 (V555M).

For `C[C@@H](Oc1ccc2[nH]nc(-c3cnn(C4CCN(C)CC4)c3)c2c1)c1c(Cl)cncc1Cl` [Example 65, 5-[(1R)-1-(3,5-dichloro-4-pyridyl)ethoxy]-3-[1-(1-methyl-4-piperidyl)pyrazol-4-yl]-1H-indazole], the IC50 fell in the range of 1 to 20 nM in assay [1], 20 to 100 nM in assay [2], 1 to 20 nM in assay [3] and 20 to 100 nM on FGFR1-BCR Ba/F3 cells. The dissociation constant Kd on FGFR3, on FGFR1, on FGFR2, on FGFR4 and at FGFR3 (V555M) was 1 to 20 nM each time.

As for `C[C@@H](Oc1ccc2[nH]nc(-c3cnc(N4CCC5(CC4)CCS(=O)(=O)C5)c(F)c3)c2c1)c1c(Cl)cncc1Cl` [Example 77, 8-[5-[5-[(1R)-1-(3,5-dichloro-4-pyridyl)ethoxy]-1H-indazol-3-yl]-3-fluoro-2-pyridyl]-2λ^6-thia-8-azaspiro[4.5]decane 2,2-dioxide], the IC50 fell in the range of 1 to 20 nM in [1], 100 to 300 nM in [2], 1 to 20 nM in [3] and 100 to 300 nM at FGFR1-BCR Ba/F3 cells. Further, the “Ba/F3 FGFR1/FGFR3 Selectivity” value in assay [3] came out at 14. The Kd on FGFR3 is 1 to 20 nM; at FGFR1, 1 to 20 nM; at FGFR2 it was 20 to 100 nM; at FGFR4 it was 1 to 20 nM; at FGFR3 (V555M) it was 1 to 20 nM.

With `C[C@@H](Oc1ccc2[nH]nc(-c3cnn(C4CCN(C5COC5)CC4)c3)c2c1)c1c(Cl)cncc1Cl` [Example 87, 5-[(1R)-1-(3,5-dichloro-4-pyridyl)ethoxy]-3-[1-[1-(oxetan-3-yl)-4-piperidyl]pyrazol-4-yl]-1H-indazole], the IC50 lay within 1 to 20 nM in [1], 20 to 100 nM in [2], 1 to 20 nM in assay [3] and 20 to 100 nM on FGFR1-BCR Ba/F3 cells. Further, in assay [3], the “Ba/F3 FGFR1/FGFR3 Selectivity” value is 17. In addition, the Kd was in the range of 1 to 20 nM on FGFR3; 1 to 20 nM on FGFR1; 1 to 20 nM at FGFR2; 20 to 100 nM at FGFR4; 1 to 20 nM on FGFR3 (V555M).

Turning to `C[C@@H](Oc1ccc2[nH]nc(-c3ccc(N4CC5(CCN(S(C)(=O)=O)CC5)C4)nc3)c2c1)c1c(Cl)cncc1Cl` [Example 111, 5-[(1R)-1-(3,5-dichloro-4-pyridyl)ethoxy]-3-[6-(7-methylsulfonyl-2,7-diazaspiro[3.5]nonan-2-yl)-3-pyridyl]-1H-indazole], the IC50 was in the range of 1 to 20 nM in assay [1], 1 to 20 nM in assay [3] and 100 to 300 nM at FGFR1-BCR Ba/F3 cells. Besides, the “Ba/F3 FGFR1/FGFR3 Selectivity” value in [3] is recorded as 15. The dissociation constant (Kd) at FGFR3 fell in the range of 1 to 20 nM; at FGFR1 it was 20 to 100 nM; on FGFR2, 20 to 100 nM; on FGFR4, 1 to 20 nM; on FGFR3 (V555M), 1 to 20 nM.

As to `C[C@@H](Oc1ccc2[nH]nc(-c3ccc(N4CC5(C4)CS(=O)(=O)C5)nc3)c2c1)c1c(Cl)cncc1Cl` [Example 112, 6-[5-[5-[(1R)-1-(3,5-dichloro-4-pyridyl)ethoxy]-1H-indazol-3-yl]-2-pyridyl]-2λ^6-thia-6-azaspiro[3.3]heptane 2,2-dioxide], the results for the IC50 (in [1]; in assay [3]; at FGFR1-BCR Ba/F3 cells) were 1 to 20 nM, 1 to 20 nM and 100 to 300 nM, respectively. Moreover, the “Ba/F3 FGFR1/FGFR3 Selectivity” value in [3] is listed as 12. The Kd on FGFR3 was 1 to 20 nM; at FGFR1, 1 to 20 nM; at FGFR2, 20 to 100 nM; at FGFR4, 1 to 20 nM; at FGFR3 (V555M), 1 to 20 nM.

Regarding `C[C@@H](Oc1ccc2[nH]nc(-c3ccc(N4CC5(CCS(=O)(=O)CC5)C4)nc3)c2c1)c1c(Cl)cncc1Cl` [Example 113, 2-[5-[5-[(1R)-1-(3,5-dichloro-4-pyridyl)ethoxy]-1H-indazol-3-yl]-2-pyridyl]-7λ^6-thia-2-azaspiro[3.5]nonane 7,7-dioxide], the IC50 in assay [1] was in the range of 1 to 20 nM; in assay [3], 1 to 20 nM; on FGFR1-BCR Ba/F3 cells, 20 to 100 nM. In addition, in assay [3], the “Ba/F3 FGFR1/FGFR3 Selectivity” value came to 11. Also, the Kd at FGFR3, at FGFR1, on FGFR2, on FGFR4 and on FGFR3 (V555M) was 1 to 20 nM each time.
